Measured values from paper PMC12030033, “Design and Synthesis of Bis-Chalcones as Curcumin Simplified Analogs and Assessment of Their Antiproliferative Activities Against Human Lung Cancer Cells and Trypanosoma cruzi Amastigotes” (Pharmaceuticals, 2025).
Read-outs that look alike come from different tables or passages of the source.

Experiments:
A549 cells [1] = experiment: Antiproliferative activity (MTT) against A549 tumor cell line; format: cell-based, human; settings: for IC50: read-out: A549 IC50; for Selective Index SI A549: PBMC LD50 vs A549 IC50
Procedure: (§2) Cells were treated with increasing concentrations of the hybrids in triplicates, pre-diluted in DMEM + 2% FBS, and incubated for 120 h. The toxic effect of the molecules was also evaluated on human lung cancer cell lines (A549 and H460), as well as on PBMC. […] In all experiments, untreated controls, vehicle (0.2% v/v DMSO), and blanks (no added cells) were included. […] Then, 20 µL of 3.0 mM MTT saline was added and incubated for another 1.5 h. The supernatant was removed, and the MTT formazan crystals were dissolved by adding 120 µL/well of DMSO. After incubation for 1.5 h to dissolve the MTT crystals away from light and at 37 °C, the absorbance was measured at λ = 570 nm using a plate reader.

H460 cells = experiment: Antiproliferative activity (MTT) against H460 tumor cell line; format: cell-based, human; settings: for IC50: read-out: H460 IC50; for Selective Index SI H460: PBMC LD50 vs H460 IC50; for Fold increase in potency compared with analog 7, H460: IC50 ratio vs 7
Procedure: as §2

[2] = system: T. cruzi amastigotes (Tulahuen C2C4-LacZ); experiment: Trypanocidal activity against intracellular amastigotes (CPRG, beta-galactosidase); format: cell-based, Trypanosoma cruzi; settings: for Selective Index: LLC-MK2 IC50 vs T. cruzi amastigote IC50; for IC50: 120 h, in LLC-MK2 host cells
Procedure: The antiparasitic activity assays used the Tulahuen C2C4-LacZ strain of the Trypanosoma cruzi parasite, being evaluated in the amastigote forms. […] Trypomastigote forms were collected from the culture supernatant between the 5th and 10th day after infection and separated from non-adherent cells by differential centrifugation. Epimastigote evolutionary form parasites were cultivated in LIT medium (Liver Infusion Tryptose), supplemented with hemin (25 mg/L) + 10% FBS, and incubated at 28 °C, performing successive passages every 6–7 days.
Non-internalized parasites were removed by three successive washes with PBS, followed by treatment with increasing concentrations of the hybrids (0.64–100 µM) in triplicates, pre-diluted in DMEM + 2% FBS. Untreated vehicle (0.2% v/v DMSO) and blank (no added parasites) controls were included in the experiment. Increasing concentrations of Benznidazole were used as the positive control. After incubation for 5 days (120 h), 30 µL of 0.5 mM chlorophenol red substrate β-galactopyranoside (CPRG) in PBS was added with 0.9% v/v of Igepal CA-630.

[3] = system: peripheral blood mononuclear cells (PBMC); settings: human, 72 h
Procedure: as §2

[4] = Cytotoxicity (MTT) on LLC-MK2 host cells; format: cell-based; settings: rhesus monkey
Excerpt: (§1) Mammalian cells were used to evaluate the cytotoxicity of the tested compounds. […] Cells were dissociated from the monolayer by treatment with a solution containing 0.25% w/v trypsin and 0.04% EDTA.

[5] = system: peripheral blood mononuclear cells (PBMC); experiment: Cytotoxicity (MTT) on peripheral blood mononuclear cells; settings: for PBMC LD50: 72 h, MTT
Procedure: as §2

[6] = Stability in PBS by HPLC-DAD; format: physicochemical; settings: PBS pH 7.4, 37 °C; for Chemical stability in PBS: 24 h incubation
Procedure: The analytical conditions were as follows: Column Restek, Allure Organic Acid C18, 150 mm × 4.6 mm × 5 µm (Bellefonte, PA, USA); mobile phase, 40% water with 0.1% formic acid, 60% acetonitrile with 0.1% formic acid, 1.0 mL/min, isocratic elution; injection volume, 5 µL; detectors, PDA (200–800 nm). […] After incubation, 100 µL of reaction mixtures were added to 900 µL of HPLC mobile phase and injected.

[7] = system: T. cruzi (Y strain) amastigotes; parameters: method as in PMID 27658305; settings: cited from earlier work
[8] = system: T. cruzi epimastigotes (Y strain); parameters: method as in PMID 27658305; settings: read-out: IC50 against epimastigotes (Y strain); cited from earlier work
A549 cells [9] = experiment: Cell cycle analysis by PI flow cytometry; format: cell-based, human; settings: A549, 72 h treatment at IC50; for Cells in G2-M phase: control approximately 20%
Procedure: The cell cycle phase was determined using a PI solution, according to a method described elsewhere. […] Cell cycle determination was performed on a FACScalibur flow cytometer (BD Biosciences, San Diego, CA, USA). Post-analysis of the cell cycle assay was performed using Summit software (version 4.3, Dako Colorado, Fort Collins, CO, USA).

A549 cells [10] = experiment: Cell death analysis by Annexin V/PI flow cytometry; format: cell-based, human; settings: A549, 48 h at IC50; control 2.38%
Procedure: Cell death analysis was performed by using an Annexin V/PI double staining kit (PharMingen, San Diego, CA, USA) as previously described. For the assay, the cells were plated at a density of 1 × 10^6 cells/well in six-well plates, 2 mL/well. […] After incubating for 15 min at room temperature in the dark, 400 µL of binding buffer was added. The two-color flow cytometry analysis was performed on a FACSCalibur device (Becton Dickinson, Franklin Lakes, NJ, USA). Post-analysis was performed in Summit software (version 4.3, Dako Colorado, Fort Collins, CO, USA).

LLC-MK2 (host cells) = experiment: Cytotoxicity (MTT) on LLC-MK2 host cells; format: cell-based; settings: 120 h, MTT
Excerpt: as §1

[11] = Homo sapiens, NCI-H460, 72 h, MTT

Compound	IC50 (A549 cells [1]; Homo sapiens, A549, 72 h, MTT)	Selective Index SI A549 (A549 cells [1])	Selective Index [2]	IC50 ([2]; Trypanosoma cruzi, TULAHUEN)	PBMC LD50 [3]	IC50 (H460 cells; [11])	Selective Index SI H460 (H460 cells)	IC50 at 120 h [4]	other results
N.N.[Cl][Pt][Cl] [Cisplatin, reference compound]	–	–	–	–	–	–	–	–	IC50 (A549 cells [1]; 72 h, MTT): 6.05 ± 0.58 µM; IC50 (H460 cells; 72 h, MTT): 2.96 ± 0.44 µM
COc1cc(/C=C/C(=O)c2ccc(O)c(OC)c2)ccc1O [Compound 5, (E)-1,3-Bis(4-hydroxy-3-methoxyphenyl)prop-2-en-1-one]	58 ± 6.75 µM	2.05	0.55	15.6 ± 4.08 µM	119.1 ± 16.35 µM	1.74 ± 0.28 µM	68.44	–	IC50 at 120 h ([4]; 120 h, MTT, read-out: LLC-MK2 (Host Cells) 120 h IC50): 8.72 ± 2.42 µM
COc1cc(/C=C2\CC/C(=C\c3ccc(O)c(OC)c3)C2=O)ccc1O [Compound 6, 2,5-Bis((E)-4-hydroxy-3-methoxybenzylidene)cyclopentan-1-one]	71.3 ± 1.53 µM	1.97	–	8.35 ± 2.35 µM	141.1 ± 18.53 µM	36.1 ± 7.14 µM	3.90	< 6.4 µM	–
COc1cc(/C=C/C(=O)/C=C/c2ccc(O)c(OC)c2)ccc1O [Compound 4, (1E,4E)-1,5-Bis(4-hydroxy-3-methoxyphenyl)penta-1,4-dien-3-one]	–	–	–	3.92 ± 0.33 µM	–	–	> 19.60	< 6.4 µM	IC50 (A549 cells [1]; Homo sapiens, A549, 72 h): 18.1 ± 4.72 µM; IC50 (H460 cells; Homo sapiens, NCI-H460, 72 h): 10.2 ± 3.76 µM; PBMC LD50 [5]: >200 µM; Toxic effects against peripheral blood mononuclear cells ([5]; higher concentration tested): did not present toxic effects; Chemical stability in PBS [6]: remained untouched
O=C(/C=C/c1ccc(O)cc1)CC(=O)/C=C/c1ccc(O)cc1 [Compound 3, (1E,6E)-1,7-Bis(4-hydroxyphenyl)hepta-1,6-diene-3,5-dione, reference compound]	46.5 ± 3.45 µM	2.88	1.11	17.6 ± 0.26 µM	134.1 ± 13.30 µM	27.1 ± 4.35 µM	–	19.7 ± 0.87 µM	–
COc1cc(/C=C/C(=O)CC(=O)/C=C/c2ccc(O)c(OC)c2)ccc1O [Compound 1, (1E,6E)-1,7-Bis(4-hydroxy-3-methoxyphenyl)hepta-1,6-dien-3,5-dione, reference compound]	–	–	–	17.8 ± 6.88 µM	146.5 ± 12.08 µM	–	–	25.7 ± 6.05 µM	Amastigote release from infected mouse macrophages [7]: inhibited amastigote release; IC50 [8]: 10.1 µM; IC50 (A549 cells [1]; Homo sapiens, A549, 72 h): 56.5 ± 3.75 µM; Cells in G2-M phase (A549 cells [9]): 80%; IC50 (H460 cells; Homo sapiens, NCI-H460, 72 h): 37.9 ± 8.81 µM; Fraction decomposed in PBS [6]: approximately 70%
COc1cc(/C=C2\CCC/C(=C\c3ccc(O)c(OC)c3)C2=O)ccc1O [Compound 7, 2,6-Bis((E)-4-hydroxy-3-methoxybenzylidene)cyclohexan-1-one]	76.2 ± 9.49 µM	–	–	4.91 ± 0.4 µM	>200 µM	42.6 ± 3.94 µM	–	< 6.4 µM	–
COc1cc(/C=C2\CS(=O)(=O)C/C(=C\c3ccc(O)c(OC)c3)C2=O)ccc1O [Compound 12, (3Z,5Z)-3,5-Bis(4-hydroxy-3-methoxybenzylidene)dihydro-2H-thiopyran-4(3H)-one 1,1-dioxide]	5.89 ± 2.81 µM	29.37	1.56	7.33 ± 0.43 µM	173.0 ± 37.4 µM	0.27 ± 0.2 µM	640.74	11.5 ± 3.71 µM	Double-positive cells for annexin and PI (late apoptosis) (A549 cells [10]): 14.98%; Cells in sub-G0 phase (A549 cells [9]): 30%; Cells in G2-M phase (A549 cells [9]): 60%
O=C(Cn1ccnc1[N+](=O)[O-])NCc1ccccc1 [Benznidazole, reference compound]	–	–	> 133	1.5 ± 0.33 µM	–	–	–	> 200 µM	–
(1E,6E)-1-(4-Hydroxy-3-methoxyphenyl)-7-(4-hydroxyphenyl)hepta-1,6-dien-3,5-dione [Compound 2, reference compound]	–	1.96	0.72	–	–	–	5.76	–	IC50 (A549 cells [1]; 72 h, MTT): 73.3 ± 6.98 µM; IC50 [2]: 31.3 ± 0.77 µM; IC50 (H460 cells; 72 h, MTT): 25.1 ± 5.55 µM; PBMC LD50 [5]: 144.3 ± 12.30 µM; IC50 (LLC-MK2 (host cells)): 22.7 ± 3.71 µM
COc1cc(/C=C2\CSC/C(=C\c3ccc(O)c(OC)c3)C2=O)ccc1O [Compound 10, (3Z,5Z)-3,5-Bis(4-hydroxy-3-methoxybenzylidene)dihydro-2H-thiopyran-4(3H)-one]	37 ± 8.28 µM	5.04	2.20	5.87 ± 2.89 µM	186.4 ± 35.15 µM	12.8 ± 3.94 µM	14.56	13 ± 2.36 µM	–
COc1cc(/C=C2\COC/C(=C\c3ccc(O)c(OC)c3)C2=O)ccc1O [Compound 8, (3E,5E)-3,5-Bis(4-hydroxy-3-methoxybenzylidene)tetrahydro-4H-pyran-4-one]	8.1 ± 1.27 µM	16.27	1.60	12.8 ± 5.17 µM	131.8 ± 14.52 µM	1.46 ± 0.28 µM	–	20.6 ± 4.65 µM	Fold increase in potency compared with parent derivative 7, A549 (A549 cells [1]; IC50 ratio vs 7): ~10 fold; Fold increase in potency compared with analog 7, H460 (H460 cells): ~30 fold; Chemical stability in PBS [6]: remained untouched
COc1cc(/C=C2\C[S+]([O-])C/C(=C\c3ccc(O)c(OC)c3)C2=O)ccc1O (stereo not drawn) [Compound 11, (3Z,5Z)-3,5-Bis(4-hydroxy-3-methoxybenzylidene)dihydro-2H-thiopyran-4(3H)-one 1-oxide]	7.74 ± 1.65 µM	–	1.70	16.7 ± 4.67 µM	>200 µM	1.02 ± 0.29 µM	> 196.07	28.5 ± 5.17 µM	–
COc1cc(/C=C2\CN(C)C/C(=C\c3ccc(O)c(OC)c3)C2=O)ccc1O [Compound 9, (3E,5E)-3,5-Bis(4-hydroxy-3-methoxybenzylidene)-1-methylpiperidin-4-one]	61.1 ± 6.2 µM	1.19	2.95	9.6 ± 1.61 µM	73.25 ± 5.87 µM	9.89 ± 3.03 µM	7.40	28.4 ± 3.8 µM	Fold increase in potency compared with analog 7, H460 (H460 cells): 4.3 fold
